Our source for the IC50, inhibition in vivo and melting point values is patent US7138411B2, “Substituted benzopyran derivatives for the treatment of inflammation” (G.D. Searle & Co., priority 1997, dated 2006).

Series [1] has as its target T1, COX-2 (UniProt P35354).
T1 sequence (P35354 1-604): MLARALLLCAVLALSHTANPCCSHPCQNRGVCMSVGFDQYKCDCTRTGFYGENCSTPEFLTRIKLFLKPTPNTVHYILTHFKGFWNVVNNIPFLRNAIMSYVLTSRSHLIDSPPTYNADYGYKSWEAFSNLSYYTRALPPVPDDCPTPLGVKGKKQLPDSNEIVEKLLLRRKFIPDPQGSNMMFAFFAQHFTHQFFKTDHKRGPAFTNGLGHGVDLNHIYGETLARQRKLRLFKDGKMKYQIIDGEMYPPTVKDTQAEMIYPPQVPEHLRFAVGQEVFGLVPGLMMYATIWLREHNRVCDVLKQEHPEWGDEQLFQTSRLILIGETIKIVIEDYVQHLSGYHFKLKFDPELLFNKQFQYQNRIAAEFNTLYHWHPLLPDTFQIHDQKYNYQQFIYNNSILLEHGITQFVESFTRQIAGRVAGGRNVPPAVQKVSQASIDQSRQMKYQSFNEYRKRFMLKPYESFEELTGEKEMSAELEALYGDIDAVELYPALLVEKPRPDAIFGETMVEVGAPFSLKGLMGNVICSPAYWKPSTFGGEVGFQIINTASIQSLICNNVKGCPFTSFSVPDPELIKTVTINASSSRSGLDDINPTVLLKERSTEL
Nature of the series: Fast assay for COX-2 activity (PGE2 ELISA). Format: biochemical, human or murine. The conditions noted are these: fast assay: 10 min pre-incubation at 25° C., reaction stopped after two minutes, pH 7.5.
Procedure: The homogenate was centrifuged at 10,000×G for 30 minutes, and the resultant supernatant was stored at −80° C. before being assayed for COX activity.
Fast Assay for COX-1 and COX-2 Activity
COX activity was assayed as PGE2 formed/μg protein/time using an ELISA to detect the prostaglandin released. CHAPS-solubilized insect cell membranes containing the appropriate COX enzyme were incubated in a potassium phosphate buffer (0.05 M Potassium phosphate, pH 7.5, 2 μM phenol,1 μM heme, 300 μM epinephrine) with the addition of 20 μl of 100 μM arachidonic acid (10 μM). […] The PGE2 formed was measured by standard ELISA technology (Cayman Chemical).

Series [2] can be described thus: Analgesia (Table I). The conditions noted are these: read-out: ANALGESIA % Inhibition; for inhibition in vivo at 10 mg/kg: @ 10 mpk (values marked *). On the set-up: inhibition in vivo: dose or concentration left out as unconfirmed. Format: in vivo.
Series [3] concerns carrageenan foot edema. The experiment in a line: Rat carrageenan foot pad edema test. Format: in vivo, Male Sprague-Dawley rats. On the set-up: inhibition in vivo: dose or concentration left out as unconfirmed. Particulars: po, 3 h, dosed orally, foot volume three hours after carrageenan, read-out: RAT PAW EDEMA % Inhibition; for inhibition in vivo at 10 mg/kg: @ 10 mpk (values marked *). The procedure: Rat Carrageenan Foot Pad Edema Test
Male Sprague-Dawley rats were selected in each group so that the average body weight was as close as possible. Rats were fasted with free access to water for over sixteen hours prior to the test. The rats were dosed orally (1 mL) with compounds suspended in vehicle containing 0.5% methylcellulose and 0.025% surfactant, or with vehicle alone. One hour later a subplantar injection of 0.1 mL of 1% solution of carrageenan/sterile 0.9% saline was administered and the volume of the injected foot was measured with a displacement plethysmometer connected to a pressure transducer with a digital indicator. Three hours after the injection of the carrageenan, the volume of the foot was again measured. The average foot swelling in a group of drug-treated animals was compared with that of a group of placebo-treated animals and the percentage inhibition of edema was determined (Otterness and Bliven, Laboratory Models for Testing NSAIDs, in Non-steroidal Anti-Inflammatory Drugs, (J. Lombardino, ed. 1985)).

Series [4] addresses COX-1 (UniProt P23219). The experiment in a line: Assay for COX-1 activity (PGE2 ELISA). Particulars: read-out: COX-1 IC50; 10–20 minutes pre-incubation, reaction stopped after ten minutes, pH 8.0.
For series [5], the target named is T1, COX-2. The experiment in a line: Assay for COX-2 activity (PGE2 ELISA). The conditions noted are these: read-out: COX-2 IC50; 10–20 minutes pre-incubation, reaction stopped after ten minutes, pH 8.0.

Where only a bound is given, the exact number is not on record here.

In series [1], `O=C(O)C1=Cc2cc(Cl)ccc2OC1C(F)(F)F` (stereo not drawn) [Example 1, 6-Chloro-2-trifluoromethyl-2H-1-benzopyran-3-carboxylic acid] returned an IC50 of 300 nM. Besides, the results for the inhibition in vivo in series [2] and in series [3] were 58% and 57%, respectively.
For `CC(C)(C)c1ccc2c(c1)OC(C(F)(F)F)C(C(=O)O)=C2` (stereo not drawn) [Example 12, 7-(1,1-Dimethylethyl)-2-trifluoromethyl-2H-1-benzopyran-3-carboxylic acid] the same measures were 7000 nM, 37% and 30%.
In the case of `O=C(O)C1=Cc2cc(OC(F)(F)F)ccc2OC1C(F)(F)F` (stereo not drawn) [Example 16, 6-Trifluoromethoxy-2-trifluoromethyl-2H-1-benzopyran-3-carboxylic acid], the inhibition in vivo in series [2] turned out to be 34%; in series [3], 48%. For the same compound, in series [4], the IC50 stood at 51000 nM.
As for `O=C(O)C1=Cc2cc(Cl)c(Cl)cc2OC1C(F)(F)F` (stereo not drawn) [Example 31, 6,7-Dichloro-2-trifluoromethyl-2H-1-benzopyran-3-carboxylic acid], the IC50 in series [1] was under 100 nM. For the same compound, the inhibition in vivo at 10 mg/kg was 37% in series [2] and 39% in series [3].
As to `Cc1cc(Cl)cc2c1OC(C(F)(F)F)C(C(=O)O)=C2` (stereo not drawn) [Example 38, 6-Chloro-8-methyl-2-trifluoromethyl-2H-1-benzopyran-3-carboxylic acid], the inhibition in vivo in series [2] stood at 55%; in series [3], 47%. In series [4], the IC50 was 57000 nM.
For `Cc1cc(Cl)c2c(c1)C=C(C(=O)O)C(C(F)(F)F)O2` (stereo not drawn) [Example 39, 8-Chloro-6-methyl-2-trifluoromethyl-2H-1-benzopyran-3-carboxylic acid] the same measures were 8%, 18% and over 100000 nM.
Take `O=C(O)C1=Cc2cc(Cl)cc(F)c2OC1C(F)(F)F` (stereo not drawn) [Example 46, 6-Chloro-8-fluoro-2-trifluoromethyl-2H-1-benzopyran-3-carboxylic acid]: the melting point was in the range of 190.8 to 193 °C. Further, the IC50 in series [1] amounted to 200 nM. Besides, the inhibition in vivo in series [2] was determined as 67%. Besides, in series [5], the IC50 is 74000 nM. For the same compound, the inhibition in vivo in series [3] amounted to 59%. For the same compound, the IC50 in series [4] came out at 43000 nM.
`O=C(O)C1=Cc2cc(Cl)ccc2SC1C(F)(F)F` (stereo not drawn) [Example 65, 6-Chloro-2-trifluoromethyl-2H-1-benzothiopyran-3-carboxylic acid] came in with a melting point of 188.8 to 198.7 °C. Further, the IC50 in series [1] is under 100 nM. In addition, the inhibition in vivo in series [2] came to 32%. The inhibition in vivo in series [3] was 43%.
With `O=C(O)C1=Cc2cc(C(F)F)ccc2OC1C(F)(F)F` (stereo not drawn) [Example 81, 6-(Difluoromethyl)-2-(trifluoromethyl)-2H-1-benzopyran-3-carboxylic acid], the IC50 in series [1] was under 100 nM; in series [5], under 100 nM; in series [4] it was 1600 nM. The values for the inhibition in vivo in series [2] and in series [3] were 44% and 36%, respectively.
For the compound `O=C(O)C1=Cc2c(cc(Cl)c(Cl)c2Cl)OC1C(F)(F)F` (stereo not drawn) [Example 83, 5,6,7-Trichloro-2-(trifluoromethyl)-2H-1-benzopyran-3-carboxylic acid], the figures for the IC50 in series [1], in series [5] and in series [4] were under 100 nM, under 100 nM and 1400 nM, respectively. Besides, the inhibition in vivo came out at 65% in series [2] and 56% in series [3].
Turning to `O=C(O)C1=Cc2cc(Cl)c(Cl)c(Cl)c2OC1C(F)(F)F` (stereo not drawn) [Example 84, 6,7,8-Trichloro-2-(trifluoromethyl)-2H-1-benzopyran-3-carboxylic acid], the inhibition in vivo came out at 24% in series [2] and 44% in series [3]. In addition, the IC50 in series [5] is under 100 nM; in series [4], 2800 nM.
`O=C(O)C1=Cc2cc(Oc3ccc(C(F)(F)F)cc3)cc(Cl)c2OC1C(F)(F)F` (stereo not drawn) [Example 105] yielded a melting point of 223.7 to 226 °C. The same compound returned an IC50 in series [1] of 300 nM. Further, the inhibition in vivo in series [2] came to 69%. In addition, the IC50 in series [5] worked out at 200 nM. In series [3], the inhibition in vivo is 75%. The IC50 in series [4] came out at 100 nM.
As for `C#Cc1cc(Cl)cc2c1OC(C(F)(F)F)C(C(=O)O)=C2` (stereo not drawn) [Example 115, 6-Chloro-8-ethynyl-2-(trifluoromethyl)-2H-1-benzopyran-3-carboxylic acid], the melting point was in the range of 186.2 to 189 °C. The compound further displayed an IC50 in series [1] of under 100 nM. Moreover, the inhibition in vivo in series [2] was found to be 62%. Moreover, the IC50 in series [5] was under 100 nM. Moreover, the inhibition in vivo in series [3] was determined as 52%. Further, the half-maximal inhibitory concentration (IC50) in series [4] is under 100 nM.
`O=C(O)C1=Cc2cc(Cl)cc(Cl)c2SC1C(F)(F)F` (stereo not drawn) [Example 156, 6,8-Dichloro-2-trifluoromethyl-2H-1-benzothiopyran-3-carboxylic acid]: the melting point lay in the range of 217.9 to 220.3 °C. The compound also gave a half-maximal inhibitory concentration (IC50) in series [1] of under 100 nM. In addition, the inhibition in vivo in series [2] was found to be 66%. Besides, in series [5], the IC50 is under 100 nM. For the same compound, the inhibition in vivo in series [3] stood at 54%. In addition, the IC50 in series [4] turned out to be 100 nM.
As for `O=C(O)C1=Cc2cc(Cl)c(Oc3ccccc3)cc2OC1C(F)(F)F` (stereo not drawn) [Example 177, 6-Chloro-7-phenoxy-2-(trifluoromethyl)-2H-1-benzopyran-3-carboxylic acid], the melting point was 220.2 to 221.8 °C. Besides, the IC50 in series [1] is under 100 nM. Besides, the inhibition in vivo at 10 mg/kg in series [2] stood at 61%. Besides, in series [5], the IC50 was under 100 nM. Moreover, the inhibition in vivo at 10 mg/kg in series [3] was found to be 59%. Moreover, the IC50 in series [4] was determined as 300 nM.
`O=C(O)C1=Cc2cc(Cl)c(Oc3ccc(Cl)cc3Br)cc2OC1C(F)(F)F` (stereo not drawn) [Example 188, 7-(2-Bromo-4-chlorophenoxy)-6-chloro-2-(trifluoromethyl)-2H-1-benzopyran-3-carboxylic acid] gave a melting point of 223.6 to 225.6 °C. This compound gave an IC50 in series [1] of under 100 nM. The inhibition in vivo in series [2] came out at 69%. Further, in series [5], the IC50 was under 100 nM. Also, the inhibition in vivo in series [3] was found to be 57%. Further, the IC50 in series [4] turned out to be 3700 nM.
